For the data set, the system named is human epithelial HeLa cells. Description: HeLa cytotoxicity assay (CellTiter-Glo). In kind it is cell-based. The settings on record: pCC50. Summed up: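 Read-out is CellTiter-Glo luminescence after 2 days at 37 °C, on IFN-γ-stimulated (10 nM) HeLa cells seeded at 5,000/well with compounds in 11-point 3-fold dose series. pCC50 from four-parameter curve fit; wells without cells set 100% cytotoxicity, stimulated cells with DMSO set 0%.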
A general note: ATP-based viability assays read luminescence as a measure of living cells.

Drawing on patent publication US10899754B2, “Modulators of indoleamine 2,3-dioxygenase” (GLAXOSMITHKLINE INTELLECTUAL PROPERTY DEVELOPMENT LIMITED, priority 2016, dated 2021), this text covers HELA_IDO1_TOX_PXC50 for two molecules.

SMILES strings stand for the structures.

As to `CC(C)CN(c1ccc([C@H](C)CC(=O)O)cc1Nc1nnc(C2CC2)s1)C1CCOCC1` [Example 23, (R)-3-(3-((5-cyclopropyl-1,3,4-thiadiazol-2-yl)amino)-4-(isobutyl (tetrahydro-2H-pyran-4-yl)amino)phenyl)butanoic Acid], the HELA_IDO1_TOX_PXC50 is <5.
The value for `CC(C)CN(c1ccc([C@H](C)CC(=O)O)cc1Nc1nc(C(F)(F)F)ns1)C1CCOCC1` [Example 20, (R)-3-(4-(Isobutyl(tetrahydro-2H-pyran-4-yl)amino)-3-((3-(trifluoromethyl)-1,2,4-thiadiazol-5-yl)amino)phenyl)butanoic Acid] was <5.
